In PubChem BioAssay (NCI):
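Where inhibition never reached the appropriate level, the endpoint shown equals the highest concentration tested. Otherwise, values were interpolated linearly from a five-concentration, 48-hour dose response in 96-well plates. At the GI50, growth is halved. At the TGI there is no net growth.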

Assays:
Test in all cases: inhibition of tumour cell growth, NCI panel, 48 h
786-0 renal = system: 786-0 renal
A498 renal = system: A498 renal
A549 NSCLC = system: A549 NSCLC
ACHN renal = system: ACHN renal
BT-549 breast = system: BT-549 breast
CAKI-1 renal = system: CAKI-1 renal
CCRF-CEM leukemia = system: CCRF-CEM leukemia
COLO 205 colon = system: COLO 205 colon
DU-145 prostate = system: DU-145 prostate
EKVX NSCLC = system: EKVX NSCLC
HCC-2998 colon = system: HCC-2998 colon
HCT-116 colon = system: HCT-116 colon
HCT-15 colon = system: HCT-15 colon
HL-60(TB) leukemia = system: HL-60(TB) leukemia
HOP-62 NSCLC = system: HOP-62 NSCLC
HOP-92 NSCLC = system: HOP-92 NSCLC
HS 578T breast = system: HS 578T breast
HT29 colon = system: HT29 colon
IGROV1 ovarian = system: IGROV1 ovarian
K-562 leukemia = system: K-562 leukemia
KM12 colon = system: KM12 colon
LOX IMVI melanoma = system: LOX IMVI melanoma
M14 melanoma = system: M14 melanoma
MALME-3M melanoma = system: MALME-3M melanoma
MCF7 breast = system: MCF7 breast
MDA-MB-231 breast = system: MDA-MB-231 breast
MDA-MB-435 = system: MDA-MB-435
MOLT-4 leukemia = system: MOLT-4 leukemia
NCI-H226 lung = system: NCI-H226 lung
NCI-H23 lung = system: NCI-H23 lung
NCI-H460 lung = system: NCI-H460 lung
NCI-H522 lung = system: NCI-H522 lung
NCI/ADR-RES ovarian = system: NCI/ADR-RES ovarian
OVCAR-3 ovarian = system: OVCAR-3 ovarian
OVCAR-4 ovarian = system: OVCAR-4 ovarian
OVCAR-5 ovarian = system: OVCAR-5 ovarian
OVCAR-8 ovarian = system: OVCAR-8 ovarian
PC-3 prostate = system: PC-3 prostate
RPMI-8226 leukemia = system: RPMI-8226 leukemia
RXF 393 renal = system: RXF 393 renal
SF-268 CNS = system: SF-268 CNS
SF-295 CNS = system: SF-295 CNS
SF-539 CNS = system: SF-539 CNS
SK-MEL-2 melanoma = system: SK-MEL-2 melanoma
SK-MEL-28 melanoma = system: SK-MEL-28 melanoma
SK-MEL-5 melanoma = system: SK-MEL-5 melanoma
SK-OV-3 ovarian = system: SK-OV-3 ovarian
SN12C renal = system: SN12C renal
SNB-19 CNS = system: SNB-19 CNS
SNB-75 CNS = system: SNB-75 CNS
SR leukemia = system: SR leukemia
SW-620 colon = system: SW-620 colon
T-47D breast = system: T-47D breast
TK-10 renal = system: TK-10 renal
U251 CNS = system: U251 CNS
UACC-257 melanoma = system: UACC-257 melanoma
UACC-62 melanoma = system: UACC-62 melanoma
UO-31 renal = system: UO-31 renal

Which GI50 (786-0 renal) does the source give for CCO/C=N/C1=C(C#N)C(c2ccc(F)cc2)c2sc3c(C)cccc3c2O1 (stereo unspecified) here?
Its GI50 is 614 nM.

What about the TGI (786-0 renal) of the same compound?
Its TGI is 12900 nM.

And the GI50 (A498 renal)?
Its GI50 is 261 nM.

What about the TGI (A498 renal) of the same compound?
Its TGI is 1480 nM.

And the GI50 (A549 NSCLC)?
The GI50 was 458 nM.

What about the TGI (A549 NSCLC) of the same compound?
The TGI was 18700 nM.

And the GI50 (ACHN renal)?
The GI50 was 616 nM.

What about the TGI (ACHN renal) of the same compound?
Its TGI is 14600 nM.

And the GI50 (BT-549 breast)?
The GI50 was 751 nM.

What about the TGI (BT-549 breast) of the same compound?
Its TGI is 5630 nM.

And the GI50 (CAKI-1 renal)?
Its GI50 is 386 nM.

And the TGI (CAKI-1 renal)?
Its TGI is 17200 nM.

And the GI50 (CCRF-CEM leukemia)?
Its GI50 is 359 nM.

What about the TGI (CCRF-CEM leukemia) of the same compound?
Its TGI is 21300 nM.

And the GI50 (COLO 205 colon)?
Its GI50 is 401 nM.

What about the TGI (COLO 205 colon) of the same compound?
The TGI was 2250 nM.

And the GI50 (DU-145 prostate)?
Its GI50 is 434 nM.

What about the TGI (DU-145 prostate) of the same compound?
The TGI was 14200 nM.

And the GI50 (EKVX NSCLC)?
Its GI50 is 383 nM.

And the TGI (EKVX NSCLC)?
Its TGI is 18300 nM.

And the GI50 (HCC-2998 colon)?
The GI50 was 421 nM.

What about the TGI (HCC-2998 colon) of the same compound?
Its TGI is 12900 nM.

And the GI50 (HCT-116 colon)?
Its GI50 is 375 nM.

And the TGI (HCT-116 colon)?
The TGI was 10400 nM.

And the GI50 (HCT-15 colon)?
The GI50 was 336 nM.

And the TGI (HCT-15 colon)?
The TGI was 11500 nM.

And the GI50 (HL-60(TB) leukemia)?
Its GI50 is 340 nM.

And the TGI (HL-60(TB) leukemia)?
The TGI was 12900 nM.

And the GI50 (HOP-62 NSCLC)?
Its GI50 is 423 nM.

What about the TGI (HOP-62 NSCLC) of the same compound?
Its TGI is 15800 nM.

And the GI50 (HOP-92 NSCLC)?
Its GI50 is 624 nM.

And the TGI (HOP-92 NSCLC)?
Its TGI is 8000 nM.

And the GI50 (HS 578T breast)?
The GI50 was 325 nM.

And the TGI (HS 578T breast)?
Its TGI is 14800 nM.

What about the GI50 (HT29 colon) of the same compound?
Its GI50 is 389 nM.

And the TGI (HT29 colon)?
Its TGI is 12600 nM.

And the GI50 (IGROV1 ovarian)?
The GI50 was 379 nM.

And the TGI (IGROV1 ovarian)?
Its TGI is 14900 nM.

And the GI50 (K-562 leukemia)?
The GI50 was 281 nM.

And the TGI (K-562 leukemia)?
The TGI was > 62100 nM.

What about the GI50 (KM12 colon) of the same compound?
The GI50 was 389 nM.

And the TGI (KM12 colon)?
The TGI was 14700 nM.

And the GI50 (LOX IMVI melanoma)?
Its GI50 is 626 nM.

What about the TGI (LOX IMVI melanoma) of the same compound?
The TGI was 14100 nM.

And the GI50 (M14 melanoma)?
The GI50 was 316 nM.

And the TGI (M14 melanoma)?
The TGI was 12200 nM.

What about the GI50 (MALME-3M melanoma) of the same compound?
Its GI50 is 10600 nM.

What about the TGI (MALME-3M melanoma) of the same compound?
Its TGI is 24800 nM.

What about the GI50 (MCF7 breast) of the same compound?
The GI50 was 271 nM.

What about the TGI (MCF7 breast) of the same compound?
Its TGI is 13100 nM.

And the GI50 (MDA-MB-231 breast)?
The GI50 was 531 nM.

And the TGI (MDA-MB-231 breast)?
The TGI was 17600 nM.

And the GI50 (MDA-MB-435)?
The GI50 was 178 nM.

What about the TGI (MDA-MB-435) of the same compound?
Its TGI is 609 nM.

What about the GI50 (MOLT-4 leukemia) of the same compound?
The GI50 was 560 nM.

And the TGI (MOLT-4 leukemia)?
The TGI was 32200 nM.

What about the GI50 (NCI-H226 lung) of the same compound?
The GI50 was 1290 nM.

What about the TGI (NCI-H226 lung) of the same compound?
Its TGI is 12100 nM.

What about the GI50 (NCI-H23 lung) of the same compound?
The GI50 was 517 nM.

And the TGI (NCI-H23 lung)?
The TGI was 14700 nM.

What about the GI50 (NCI-H460 lung) of the same compound?
Its GI50 is 367 nM.

What about the TGI (NCI-H460 lung) of the same compound?
Its TGI is 11100 nM.

What about the GI50 (NCI-H522 lung) of the same compound?
Its GI50 is 214 nM.

What about the TGI (NCI-H522 lung) of the same compound?
Its TGI is 11700 nM.

What about the GI50 (NCI/ADR-RES ovarian) of the same compound?
Its GI50 is 220 nM.

And the TGI (NCI/ADR-RES ovarian)?
Its TGI is 12700 nM.

What about the GI50 (OVCAR-3 ovarian) of the same compound?
The GI50 was 379 nM.

And the TGI (OVCAR-3 ovarian)?
The TGI was 11900 nM.

And the GI50 (OVCAR-4 ovarian)?
The GI50 was 1700 nM.

And the TGI (OVCAR-4 ovarian)?
Its TGI is 24800 nM.

What about the GI50 (OVCAR-5 ovarian) of the same compound?
Its GI50 is 574 nM.

And the TGI (OVCAR-5 ovarian)?
Its TGI is 16400 nM.

And the GI50 (OVCAR-8 ovarian)?
The GI50 was 499 nM.

What about the TGI (OVCAR-8 ovarian) of the same compound?
Its TGI is 20300 nM.

What about the GI50 (PC-3 prostate) of the same compound?
Its GI50 is 386 nM.

And the TGI (PC-3 prostate)?
Its TGI is 14800 nM.

What about the GI50 (RPMI-8226 leukemia) of the same compound?
Its GI50 is 371 nM.

And the TGI (RPMI-8226 leukemia)?
Its TGI is 11000 nM.

And the GI50 (RXF 393 renal)?
The GI50 was 175 nM.

What about the TGI (RXF 393 renal) of the same compound?
Its TGI is 550 nM.

And the GI50 (SF-268 CNS)?
The GI50 was 1740 nM.

And the TGI (SF-268 CNS)?
The TGI was 17300 nM.

And the GI50 (SF-295 CNS)?
Its GI50 is 250 nM.

And the TGI (SF-295 CNS)?
Its TGI is 2800 nM.

And the GI50 (SF-539 CNS)?
The GI50 was 243 nM.

What about the TGI (SF-539 CNS) of the same compound?
The TGI was 1540 nM.

And the GI50 (SK-MEL-2 melanoma)?
Its GI50 is 726 nM.

And the TGI (SK-MEL-2 melanoma)?
Its TGI is 20700 nM.

What about the GI50 (SK-MEL-28 melanoma) of the same compound?
The GI50 was 1400 nM.

What about the TGI (SK-MEL-28 melanoma) of the same compound?
Its TGI is 20600 nM.

What about the GI50 (SK-MEL-5 melanoma) of the same compound?
Its GI50 is 487 nM.

And the TGI (SK-MEL-5 melanoma)?
Its TGI is 2530 nM.

And the GI50 (SK-OV-3 ovarian)?
Its GI50 is 834 nM.

What about the TGI (SK-OV-3 ovarian) of the same compound?
Its TGI is 25500 nM.

What about the GI50 (SN12C renal) of the same compound?
The GI50 was 534 nM.

And the TGI (SN12C renal)?
Its TGI is 13900 nM.

And the GI50 (SNB-19 CNS)?
Its GI50 is 452 nM.

And the TGI (SNB-19 CNS)?
Its TGI is 16500 nM.

And the GI50 (SNB-75 CNS)?
Its GI50 is 114 nM.

What about the TGI (SNB-75 CNS) of the same compound?
The TGI was 2640 nM.

And the GI50 (SR leukemia)?
Its GI50 is 524 nM.

What about the TGI (SR leukemia) of the same compound?
Its TGI is 60100 nM.

What about the GI50 (SW-620 colon) of the same compound?
Its GI50 is 401 nM.

What about the TGI (SW-620 colon) of the same compound?
The TGI was 15800 nM.

What about the GI50 (T-47D breast) of the same compound?
Its GI50 is 818 nM.

And the TGI (T-47D breast)?
Its TGI is 66900 nM.

What about the GI50 (TK-10 renal) of the same compound?
Its GI50 is 11800 nM.

And the TGI (TK-10 renal)?
The TGI was 27500 nM.

What about the GI50 (U251 CNS) of the same compound?
Its GI50 is 473 nM.

What about the TGI (U251 CNS) of the same compound?
Its TGI is 15500 nM.

And the GI50 (UACC-257 melanoma)?
Its GI50 is 12900 nM.

And the TGI (UACC-257 melanoma)?
Its TGI is 35600 nM.

And the GI50 (UACC-62 melanoma)?
Its GI50 is 404 nM.

And the TGI (UACC-62 melanoma)?
Its TGI is 19500 nM.

What about the GI50 (UO-31 renal) of the same compound?
Its GI50 is 572 nM.

And the TGI (UO-31 renal)?
The TGI was 15900 nM.
